System: patients with mild to moderate hypertension
Assay: Clinical study: plasma renin activity
Format: in vivo
Protocol: After six weeks the non-responders were titrated to a 100 mg oral dose administered once daily.

## CCCCc1nc(Cl)c(CO)n1Cc1ccc(-c2ccccc2-c2nnn[nH]2)cc1.[K] [Losartan, 2-n-butyl-4-chloro-1-[(2'-(tetrazol-5-yl)-1,1'-biphenyl-4-yl)-methyl]-1H-imidazole-5-methanol potassium salt]
LOS 50, week 12, N 99
  PLASMA RENIN ACTIVITY, TREATMENT MEAN: 2.889 ng/mL/h
LOS 50, week 12, N 99, change from baseline 1.300
  PLASMA RENIN ACTIVITY, CHANGE MEAN: 1.589 ng/mL/h
LOS 50/100, week 12, N 96
  PLASMA RENIN ACTIVITY, TREATMENT MEAN: 3.724 ng/mL/h
LOS 50/100, week 12, N 96, change from baseline 1.473
  PLASMA RENIN ACTIVITY, CHANGE MEAN: 2.251 ng/mL/h
